Experimental data reported in patent US20090060984A1, “ANIONIC SURFACTANTS LETHAL TO GRAM-POSITIVE BACTERIA” (priority 2007, published 2009).
“And” between values parts separate entries of the source, which are not always exact repeats. Identical values can stand only once. Like-named read-outs stand apart in the source and are kept apart here.

Assays:
Serratia marcescens = experiment: Growth on surfactant/TSA agar plates; type: cell-based; settings: the one Gram-negative not resistant
Method: This solution was then aliquoted into sterile petri dishes, approximately 25 mL per plate, and allowed to solidify. The organisms were grown in 5 mL of Trypticase Soy Broth. The sterile broth was inoculated with a single isolated colony from a stock culture and allowed to incubate in a shaking water bath at 37° C. for 8-10 hours. The estimated concentration was about 10^9 CFU/mL. Some plates were tested with a 1:100 dilution of these cultures to arrive at an approximate concentration of 10^7 CFU/mL. Then, 10 μL of each overnight culture was pipetted directly onto the surface of the surfactant/TSA plates, which were then allowed to incubate at 37° C. for 24 hours. Results were based on the presence or absence of bacterial growth on the surface of the agar.

B. subtilis = experiment: Sodium surfactant polyurethane coated microscope slides, surviving bacteria; settings: for CFU/mL B. subtilis: 30% sodium surfactant polyurethane coated microscope slides, two data sets
S. aureus [1] = experiment: as above; settings: for CFU/mL S. aureus: 30% sodium surfactant polyurethane coated microscope slides, two data sets
E. coli = type: cell-based, Escherichia coli; settings: 24 h contact time
Method: Escherichia coli ATCC 11229 (Culti-loops, Remel Europe, Dartford, Kent, UK) and Pseudomonas aeruginosa ATCC 15442 (Cuti-loops, Remel Europe, Dartford, Kent, UK) were selected as model Gram-negative organisms for the challenge testing of the antimicrobial coatings. Each bacterial strain was streaked for isolated colonies on Tryptic Soy Agar (TSA) plates (Difco, Becton Dickinson, Sparks, Md., U.S.A.) and incubated at 37° C. for 12 to 18 hours. Broth cultures were prepared by first picking 1-2 isolated colonies from TSA plates and inoculating 5 mL Tryptic Soy Broth (TSB; Difco, Becton Dickinson, Sparks, Md., U.S.A.) in a 16 mm test tube. This culture was grown in a shaking water bath at 150 RPM for 8 hours at 37° C. After the eight hours, 125 μL of this culture was added to 50 mL of TSB in a side-arm Klett flask and grown for approximately 8 hours in shaking water bath (150 RPM) at 37° C. The bacterial broths were grown to an A590 of 1.2-1.5, which correlated to approximately 10^9 CFU (colony forming units)/mL. 25 mL of this broth were transferred to a sterile 30 mL Oakridge tube and centrifuged at 12,000×g for 10 minutes at 4° C. (Sorval SS34 rotor) to pelletize the bacteria. The bacterial pellet was washed once and resuspended in 25 mL of phosphate buffer solution (PBS; BBL, FTA Hemaglutination Buffer, Becton Dickinson, Sparks, Md., U.S.A.). The suspension was diluted with PBS to achieve the target range of 10^5-10^6 CFU/mL and used to inoculate the slides containing antibacterial coatings.
Xylene/methanol (5:1 by weight) is used to dissolve the silver surfactants to facilitate homogeneously mixing with the alkyd resin composition.
A minus sign (−) denotes no growth, a plus sign (+) denotes confluent growth, and a capital P (P) denotes […].
Xylene/methanol (5:1 by weight) is used to dissolve the silver surfactants to facilitate homogeneously mixing with the acrylic resin composition.
The same laboratory experimental solvent based acrylic paint described in Example 34 is used to challenge E. coli by adding various levels of the invention silver anionic surfactants as described in Example 34.
A commercially available 2K epoxy resin paint is obtained from a local paint store (Sherwin Williams High Solids Epoxy Tile Clad HS; Part A B62WC11; Part B B60VZ75, The Sherwin Williams Company) and the same silver anionic surfactants described in Example 35 are used to prepare test coatings on microscope slides containing various levels of silver ion. These surfactants are dissolved in xylene/methanol (5:1 by weight) to facilitate their quantitative addition to the coating mixture.

S. aureus [2] = type: cell-based, Staphylococcus aureus; settings: laboratory acrylic clearcoat, 24 h contact time
Source text: A laboratory experimental solvent based acrylic paint is formulated and then used to challenge S. aureus by adding various levels of the invention silver anionic surfactants as described in Example 33. A binder is made by solution polymerization of butyl acrylate (25% w/w), methylmethacrylate (73.5% w/w), and methacrylic acid (1.5% w/w) in amylacetate using thermal initiation. This solution polymer is then used to make a 60% solids clearcoat binder in xylene/methanol (5:1 by weight). The silver anionic surfactants are dissolved in this same xylene/methanol mixture prior to addition to the clearcoat.

[3] = after 12 and 24 hours of exposure, polyurethane coated slides

`CCCCC(CC)COC(=O)CC(C(=O)OCC(CC)CCCC)S(=O)(=O)[O-].[Na+]` (stereo not shown) [NaAOT, Sodium bis(2-ethylhexyl)sulfosuccinate] was tested, and the “Effect on Serratia marcescens” value (Serratia marcescens) was “except for Serratia marcescens”, the “Killing of B. subtilis” value (B. subtilis; [3]) was “killed all” and the “CFU/mL B. subtilis” value (B. subtilis; exposure 12 hours) was 0 CFU/mL. For the same compound, the “CFU/mL B. subtilis” value (B. subtilis; exposure 24 hours) was 0 CFU/mL, the “Killing of S. aureus” value (S. aureus [1]; [3]) was “killed all” and the “CFU/mL S. aureus” value (S. aureus [1]; exposure 12 hours) was 0 CFU/mL. For the same compound, the “CFU/mL S. aureus” value (S. aureus [1]; exposure 24 hours) was 0 CFU/mL.

In the case of “silver linearalkanebenzene sulfonate [AgLABS]”, the “E. coli growth on coating” value (E. coli; alkyd resin paint, 0.0012 weight % Ag in coating) is reported as “+”, the “E. coli growth on coating” value (E. coli; alkyd resin paint, 0.003 weight % Ag in coating) is reported as “+” and the “E. coli growth on coating” value (E. coli; alkyd resin paint, 0.006 weight % Ag in coating) is reported as “+”. For the same compound, the “E. coli growth on coating” value (E. coli; alkyd resin paint, 0.012 weight % Ag in coating) was “+”, the “E. coli growth on coating” value (E. coli; alkyd resin paint, 0.03 weight % Ag in coating) was “−” and the “E. coli growth on coating” value (E. coli; alkyd resin paint, 0.06 weight % Ag in coating) was “−”. For the same compound, the “E. coli growth on coating” value (E. coli; alkyd resin paint, 0.12 weight % Ag in coating) was “−”, the “E. coli growth on coating” value (E. coli; commercial 2K epoxy paint, 0.0012 weight % Ag in coating) was “+” and the “E. coli growth on coating” value (E. coli; commercial 2K epoxy paint, 0.003 weight % Ag in coating) was “+”. For the same compound, the “E. coli growth on coating” value (E. coli; commercial 2K epoxy paint, 0.006 weight % Ag in coating) was “+”, the “E. coli growth on coating” value (E. coli; commercial 2K epoxy paint, 0.012 weight % Ag in coating) was “+” and the “E. coli growth on coating” value (E. coli; commercial 2K epoxy paint, 0.03 weight % Ag in coating) was “−”. The “E. coli growth on coating” value (E. coli; commercial 2K epoxy paint, 0.06 weight % Ag in coating) was “−”, the “E. coli growth on coating” value (E. coli; commercial 2K epoxy paint, 0.12 weight % Ag in coating) was “−” and the “Silver level giving complete inhibition of growth” value (E. coli; commercial 2K epoxy paint) was 0.03 % w/w. The “E. coli growth on coating” value (E. coli; commercial solvent borne acrylate paint, 0.0012 weight % Ag in coating) was “+”, the “E. coli growth on coating” value (E. coli; commercial solvent borne acrylate paint, 0.003 weight % Ag in coating) was “+” and the “E. coli growth on coating” value (E. coli; commercial solvent borne acrylate paint, 0.006 weight % Ag in coating) was “+”. The “E. coli growth on coating” value (E. coli; commercial solvent borne acrylate paint, 0.012 weight % Ag in coating) was “+”, the “E. coli growth on coating” value (E. coli; commercial solvent borne acrylate paint, 0.06 weight % Ag in coating) was “−” and the “E. coli growth on coating” value (E. coli; commercial solvent borne acrylate paint, 0.12 weight % Ag in coating) was “−”. For the same compound, the “Silver level partially effective” value (E. coli; commercial solvent borne acrylic paint) was 0.03 % Ag w/w, the “Silver level with partial inhibition” value (E. coli; laboratory solvent based acrylic paint) was 0.03% and the “E. coli growth on coating” value (E. coli; laboratory solvent borne acrylate paint, 0.0012 weight % Ag in coating) was “+”. For the same compound, the “E. coli growth on coating” value (E. coli; laboratory solvent borne acrylate paint, 0.003 weight % Ag in coating) was “+”, the “E. coli growth on coating” value (E. coli; laboratory solvent borne acrylate paint, 0.006 weight % Ag in coating) was “+” and the “E. coli growth on coating” value (E. coli; laboratory solvent borne acrylate paint, 0.012 weight % Ag in coating) was “+”. The “E. coli growth on coating” value (E. coli; laboratory solvent borne acrylate paint, 0.06 weight % Ag in coating) was “−”, the “E. coli growth on coating” value (E. coli; laboratory solvent borne acrylate paint, 0.12 weight % Ag in coating) was “−” and the “Silver level with partial growth” value (S. aureus [2]) was 0.012 % Ag w/w and 0.006 % Ag w/w.
